Test: Repolarization time for compound was measured by pattern firing by APN and KVN blockade
Format: functional
Set-up: unit not given here

Row | SMILES | Repolarization time
1 | C=C(C)[C@H]1CN[C@H](C(=O)O)[C@H]1CC(=O)O | 19.9
2 | N[C@@]1(C(=O)O)CC[C@H](C(=O)O)C1 (stereo in doubt; cis) | 15
3 | N[C@H](Cn1oc(=O)[nH]c1=O)C(=O)O | 7.8
4 | CN[C@H](CC(=O)O)C(=O)O | 8
5 | N[C@]1(C(=O)O)CC[C@H](C(=O)O)C1 | 12.7
6 | N[C@]1(C(=O)O)CC[C@@H](C(=O)O)C1 | 10.5
7 | N[C@@]1(C(=O)O)CC[C@H](C(=O)O)C1 (stereo in doubt; trans) | 17
